pKd: −log10 of the molar value. Values joined by “and” are separate entries in the source; they are usually repeats but may differ in a detail not shown here. Equal entries are not always repeated. Bridge positions count the residues as written; N and C are the ends. Square brackets hold non-standard residues; d marks the D form. Peptide text beside a SMILES is read from it. * marks the point of attachment. 5FAM = O=C1OC2(c3ccc(O)cc3Oc3cc(O)ccc32)c2ccc(C(=O)*)cc21; S5 = C=CCCC[C@](C)(N)C(=O)O; AEEEA = NCCOCCOCCOCC(=O)O
Experiments:
[1] = system: GFP-LRRK2 in HEK293 cells; experiment: LRRK2 microtubule localization assay in live cells; format: cell-based; settings: HEK293 cells overexpressing GFP-LRRK2 24 h, 37 °C, SiR-tubulin stain, live imaging
Experimental: HEK293 cells were transfected with GFP–LRRK2 for 24 h and subsequently treated with DMSO, 1 μM MLi-2, and 2.5 μM ECOR or ECOR A12G peptide for 6 h at 37 °C. The transfected cells were scored single-blinded for skein-like filamentous structures per condition. For tubulin staining, after a 6 h incubation with DMSO, MLi-2, or biotin-labeled peptides, the media was replaced with media containing 1 μM SiR-tubulin (Spirochrome SiR-tubulin Kit (SC002)) and 10 μM verapamil (a broad spectrum efflux pump inhibitor) for 1 h at 37 °C. Live cells were imaged using the 63× oil-immersion objective of a Zeiss LSM800 confocal laser scanning microscope. The Zeiss microscope software ZEN was used to generate channel overlays.

[2] = target: T1, purified full-length LRRK2 dimer (Homo sapiens, UniProt Q5S007); experiment: Mass photometry assay of LRRK2 dimerization; format: biochemical; settings: LRRK2 at 75 nM and 100 nM, 7.5-fold excess of peptide, 30 min, 30 °C, three measurements
T1 construct: Purified full-length LRRK2 was incubated for 30 min; made in house
T1 sequence (Q5S007 whole entry): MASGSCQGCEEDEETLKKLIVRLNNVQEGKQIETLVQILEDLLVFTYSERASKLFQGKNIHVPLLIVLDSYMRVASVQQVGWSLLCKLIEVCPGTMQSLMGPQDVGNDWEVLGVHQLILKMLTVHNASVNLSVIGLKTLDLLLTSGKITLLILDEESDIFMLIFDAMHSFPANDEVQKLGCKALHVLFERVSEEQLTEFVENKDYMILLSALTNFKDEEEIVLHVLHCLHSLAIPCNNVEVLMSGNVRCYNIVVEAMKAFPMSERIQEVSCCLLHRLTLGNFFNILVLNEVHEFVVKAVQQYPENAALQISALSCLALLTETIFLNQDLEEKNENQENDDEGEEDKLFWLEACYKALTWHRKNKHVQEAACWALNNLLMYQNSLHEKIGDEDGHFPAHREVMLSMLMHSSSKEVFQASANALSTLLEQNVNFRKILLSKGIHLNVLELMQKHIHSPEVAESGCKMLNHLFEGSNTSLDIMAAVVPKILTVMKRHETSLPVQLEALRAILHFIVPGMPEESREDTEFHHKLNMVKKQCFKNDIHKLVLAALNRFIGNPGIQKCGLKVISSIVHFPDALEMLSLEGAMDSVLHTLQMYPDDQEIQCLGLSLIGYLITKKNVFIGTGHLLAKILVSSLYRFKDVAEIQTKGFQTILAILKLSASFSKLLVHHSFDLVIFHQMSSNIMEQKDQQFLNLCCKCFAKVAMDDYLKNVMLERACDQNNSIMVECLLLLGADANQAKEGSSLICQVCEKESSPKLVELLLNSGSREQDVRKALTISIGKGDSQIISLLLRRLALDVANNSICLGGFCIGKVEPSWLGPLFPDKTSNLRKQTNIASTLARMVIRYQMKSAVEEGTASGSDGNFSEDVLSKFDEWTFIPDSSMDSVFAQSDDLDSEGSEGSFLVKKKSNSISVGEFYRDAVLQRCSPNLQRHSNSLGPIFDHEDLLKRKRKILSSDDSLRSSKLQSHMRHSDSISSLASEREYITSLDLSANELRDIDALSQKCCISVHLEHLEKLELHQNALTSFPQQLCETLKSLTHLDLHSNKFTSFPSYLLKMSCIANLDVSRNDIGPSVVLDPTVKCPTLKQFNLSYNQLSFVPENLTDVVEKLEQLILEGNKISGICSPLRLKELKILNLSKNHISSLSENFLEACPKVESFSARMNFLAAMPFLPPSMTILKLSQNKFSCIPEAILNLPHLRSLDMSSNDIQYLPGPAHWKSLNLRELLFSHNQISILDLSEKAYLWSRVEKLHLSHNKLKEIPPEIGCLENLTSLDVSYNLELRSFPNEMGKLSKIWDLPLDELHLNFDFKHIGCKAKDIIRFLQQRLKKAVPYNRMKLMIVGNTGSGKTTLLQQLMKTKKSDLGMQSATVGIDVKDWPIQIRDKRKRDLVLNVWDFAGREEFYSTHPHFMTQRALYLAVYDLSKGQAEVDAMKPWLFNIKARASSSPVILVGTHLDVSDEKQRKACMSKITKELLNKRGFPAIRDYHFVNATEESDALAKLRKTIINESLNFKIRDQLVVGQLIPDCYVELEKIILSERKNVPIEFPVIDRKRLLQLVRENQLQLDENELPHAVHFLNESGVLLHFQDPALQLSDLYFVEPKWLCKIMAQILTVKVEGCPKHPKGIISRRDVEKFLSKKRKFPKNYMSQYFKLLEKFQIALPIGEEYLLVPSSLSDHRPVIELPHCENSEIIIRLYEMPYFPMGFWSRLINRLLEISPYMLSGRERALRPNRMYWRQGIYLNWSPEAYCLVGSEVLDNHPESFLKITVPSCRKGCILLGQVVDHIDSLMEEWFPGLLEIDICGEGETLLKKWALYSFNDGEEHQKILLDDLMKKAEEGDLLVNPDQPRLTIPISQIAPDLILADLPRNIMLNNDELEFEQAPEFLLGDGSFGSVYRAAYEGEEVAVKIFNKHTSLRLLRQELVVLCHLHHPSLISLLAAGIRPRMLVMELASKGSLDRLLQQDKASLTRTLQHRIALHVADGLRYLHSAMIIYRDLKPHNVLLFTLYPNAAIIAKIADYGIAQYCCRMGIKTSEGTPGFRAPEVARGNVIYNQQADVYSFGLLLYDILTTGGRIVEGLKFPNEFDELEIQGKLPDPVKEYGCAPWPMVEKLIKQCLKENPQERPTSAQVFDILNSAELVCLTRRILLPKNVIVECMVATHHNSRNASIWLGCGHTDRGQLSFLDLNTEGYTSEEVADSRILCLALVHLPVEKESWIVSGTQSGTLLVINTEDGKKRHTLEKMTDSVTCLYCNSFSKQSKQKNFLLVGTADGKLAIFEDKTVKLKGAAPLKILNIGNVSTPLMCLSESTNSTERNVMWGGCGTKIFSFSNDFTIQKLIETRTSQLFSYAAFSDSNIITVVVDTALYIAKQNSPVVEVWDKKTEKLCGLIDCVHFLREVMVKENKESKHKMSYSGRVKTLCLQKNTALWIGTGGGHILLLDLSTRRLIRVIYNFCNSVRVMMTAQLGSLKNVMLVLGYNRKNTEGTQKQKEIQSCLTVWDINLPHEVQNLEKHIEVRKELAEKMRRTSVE
Experimental: LRRK2 was purified as previously described.[30] LRRK2 was diluted to a concentration of 150 nM or 200 nM and incubated with constrained peptide in a 1:7.5 ratio, for 30 min at 30 °C. Mass photometry was performed on a Refeyn Two^MP instrument.[30] The instrument was first focused with 10 μL of buffer (50 mM HEPES, 150 mM NaCl, 5 mM MgCl2, 1 mM DTT, 0.1 mM GDP, and 1% glycerol) after which 10 μL of the incubated LRRK2 solution was added. The samples were recorded for 1 min. Three measurements were processed for each condition, and the data were analyzed by GraphPad Prism.

[3] = system: primary cortical neurons expressing LRRK2 G2019S; experiment: Neuronal apoptosis in primary cortical neurons; format: cell-based; settings: primary cortical neurons (E16 C57BL mice) transfected with Flag-LRRK2 G2019S; 0.5–1 μM peptide, 48 h; % Flag-positive neurons with apoptotic nuclei; three biological replicates
Experimental: Neurons were then transfected using Lipofectamine 2000 with Flag-tagged WT LRRK2 or G2019S LRRK2. The following day, neurons were treated with 0.5 μM and 1 μM of both ECO[…] and ECO[…] for 48 h. Cells were washed in PBS and fixed in 3.7% paraformaldehyde for 20 min at 4 °C prior to antibody treatments. Images were analyzed and quantifications were performed as previously described.[30] For the determination of apoptotic neuronal death, fixed and stained neurons were visualized under a 40× magnification objective (dry). On each coverslip, a minimum of 100 Flag-positive neurons were identified and the percentage of those with apoptotic profiles was determined. Apoptotic nuclei were defined as neurons having condensed chromatin, fragmented into at least 2 or more “apoptotic bodies”.

[4] = system: LRRK2 substrate Rab10 (phospho-T73) in A549 PPM1H knockout cells; experiment: Rab10 phosphorylation immunoblotting (LRRK2 kinase activity); format: cell-based; settings: Western blot; for downregulation of Rab10 phosphorylation: 1 μM and 2.5 μM peptide (both concentrations), 6 h, pRab10 T73 over total Rab10, normalized to GAPDH and untreated control
Experimental: A549 PPM1H knockout cells were treated with 1 μM and 2.5 μM of doubly constrained peptide for 6 h. Cells treated with 1 μM MLi-2 were used as a positive control. Cell lysates were separated by SDS-PAGE and transferred to PVDF membranes by wet transfer. pRab10 T73 and total Rab10 signals were blotted on different membranes with GAPDH as a loading control on the same membrane to save the membrane from the stripping step. The membranes were blocked in nonfat milk and probed with Rab10 (phospho-T73) (Abcam; ab241060, Lot; GR327 4620-4), total Rab10 (Cell Signaling Technology; #4262S), and total GAPDH (14C10) (Cell Signaling Technology; #2118S) antibodies overnight at 4 °C, followed by incubation with HRP anti-rabbit secondary antibody, and developed using ECL. The blots were quantified using Image Studio Lite version 5.2 by selecting the bands to obtain the intensity for each band. The phospho-Rab10, total Rab10, and GAPDH signal for every sample were normalized to its untreated control for the same day. The phospho-Rab10 and total Rab10 signal was further normalized to the GAPDH signal (loading control) on the same blot. The graph was plotted with GAPDH normalized phospho-Rab10 signal over total Rab10 signal for every sample (*normalized to untreated sample). [drawing 1]

[5] = target: T2, MBP-tagged RocCOR LRRK2 (Homo sapiens, UniProt Q5S007); experiment: Fluorescence polarization (FP) binding assay, wild-type RocCOR; settings: 10 nM FAM-labeled doubly stapled peptide, wild-type RocCOR 5 μM to 1 nM, 2 mM GTP, 10 mM MgCl2, 20 mM MOPS pH 7, 150 mM NaCl, 0.005% CHAPS, room temperature, 2 h, triplicate
T2 sequence (Q5S007 1328-1840 limits assumed): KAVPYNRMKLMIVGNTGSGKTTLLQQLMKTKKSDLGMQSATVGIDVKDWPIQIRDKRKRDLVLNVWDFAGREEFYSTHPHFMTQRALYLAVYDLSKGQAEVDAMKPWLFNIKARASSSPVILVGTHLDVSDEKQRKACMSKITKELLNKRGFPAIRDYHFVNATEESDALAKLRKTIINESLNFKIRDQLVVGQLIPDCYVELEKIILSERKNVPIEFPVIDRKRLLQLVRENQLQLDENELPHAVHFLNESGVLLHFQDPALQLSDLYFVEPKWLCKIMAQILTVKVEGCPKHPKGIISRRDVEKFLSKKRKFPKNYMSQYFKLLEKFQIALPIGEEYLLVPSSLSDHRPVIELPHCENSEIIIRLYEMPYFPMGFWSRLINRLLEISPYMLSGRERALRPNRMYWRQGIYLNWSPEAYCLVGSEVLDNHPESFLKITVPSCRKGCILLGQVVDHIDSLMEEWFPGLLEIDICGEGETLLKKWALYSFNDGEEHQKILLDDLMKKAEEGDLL
Experimental: Fluorescence polarization assays were conducted on the lead doubly constrained compounds (ECOR and ECOR A12G) with two separate LRRK2 protein constructs: MBP-tagged RocCOR LRRK2 and MBP-tagged R1441C RocCOR LRRK2, both in the presence of 2 mM GTP and 10 mM MgCl2. Protein/peptide interactions were measured in a FP buffer (20 mM MOPS, pH 7, 150 mM NaCl, and 0.005% CHAPS) at room temperature. FAM-labeled peptides were plated in 384-well microtiter plates at a final concentration of 10 nM. Proteins were added over concentrations ranging from 5 μM to 1 nM. Each protein/peptide interaction experiment was carried out at 10 different protein concentrations in triplicate. Each protein/peptide mixture was incubated at room temperature for 2 h and the final reading was performed at the end of this 2 h period.

[6] = target: T3, LRRK2 G2019S homodimers in HEK293T cells (Homo sapiens, UniProt Q5S007, G2019S); experiment: Proximity biotinylation of dimeric LRRK2 in cells; format: cell-based; settings: FAM-labeled peptide 0.5–2.5 μM, 48 h treatment, ELISA of biotinylated LRRK2 normalized to total LRRK2, biological triplicates
T3 construct: expressed in transfected cells; host or cells: HEK293T
T3 sequence (Q5S007 whole entry G2019S): as the sequence (Q5S007 whole entry) above, with G2019S counted along it
Experimental: LRRK2 dimerization was assessed using either wild-type LRRK2 homodimers or LRRK2 G2019S homodimers. Experiments were carried out using various concentrations (0.5, μM, 1 μM, or 2.5 μM) of FAM-labeled ECOR or ECOR […]. The LRRK2 dimers used were purified as previously described.[18] To generate these dimers, two cDNAs encoding LRRK2 fusions with biotin ligase (BirA; N-term, Flag-tagged) or an acceptor peptide (AP, N-term; c-Myc tagged) were created. These constructs were expressed in HEK293T cells grown in biotin-depleted medium (OptiMEM+2% FBS). FAM-labeled ECO[…] and ECO[…] were diluted in serum-free medium and added 24 h after transfection. 48 h following the initial treatment (after 72 h of total expression), cells were washed in PBS, given a brief biotin pulse (50 μM, 5 min, 37 °C), washed three more times in PBS, and centrifuged. The cell pellet was snap frozen in a dry ice/methanol bath and stored at -80 °C until analysis. […] Protein-bound SA coated plates were incubated with HRP-conjugated anti-Flag antibodies for 1 h at room temperature to quantify dimeric LRRK2. Total LRRK2 overexpression was quantified using HRP-conjugated LRRK2 antibody (clone N241) on the parallel anti-LRRK2 coated plates (precoated with anti-LRRK2, clone c41-2) and was used to normalize dimeric LRRK2 content. […]

[7] = in vitro; format: in vitro ADME; settings: human, cells or culture medium
Experimental: Fully confluent HEK293 cells were lysed using ice-cold nondenaturing lysis buffer (20 mM Tris HCL, pH 8.0, 137 mM NaCl, 1% Triton X-100, 2 mM EDTA) and incubated for 30 min at 4 °C. Cells were centrifuged for 20 min at 12 000 rpm, and the supernatant was collected and kept on ice. […] Experiments were conducted at 37 °C with agitation for 0, 2, 4, and 6 h. Aliquots were collected and quenched at each indicated time point using an equal volume of 0.1% trifluoroacetic acid (TFA) in acetonitrile. This solution was then centrifuged at 14 000 rpm for 5 min, and the supernatant was used for analysis. Peptide degradation was analyzed on LC-MS using a Zorbax Eclipse XDB-C18 column as a ratio of peptide to control relative to peptide at t = 0 at 280 nm. A flow rate of 1.0 mL/min at 45 °C was used with a 0–100% water/acetonitrile gradient containing 0.1% TFA. Each individual peptide was analyzed in triplicate for each time point.

[8] = 2.5 μM biotin-labeled peptide, 6 h, minimum 500 cells scored

CC(C)C[C@H](NC(=O)[C@H](CCCCN)NC(=O)[C@]1(C)CCCC=CCCC[C@](C)(NC(=O)[C@H](Cc2c[nH]cn2)NC(=O)[C@H](CCCCN)NC(=O)[C@H](CCC(=O)O)NC(=O)CNC(=O)[C@H](CC(=O)O)NC(=O)[C@H](CC(N)=O)NC(=O)[C@H](Cc2ccccc2)NC(=O)[C@H](CO)NC(=O)[C@H](Cc2ccc(O)cc2)NC(=O)[C@H](CC(C)C)NC(=O)CNC(=O)[C@H](Cc2c[nH]c3ccccc23)NC(=O)[C@]2(C)CCCC=CCCC[C@](C)(NC(=O)[C@H](CCC(=O)O)NC(=O)CNC(=O)[C@H](CCC(=O)O)NC(=O)CNC(=O)[C@H](CCCCN)NC(=O)COCCOCCOCCNC(=O)c3ccc4c(c3)C(=O)OC43c4ccc(O)cc4Oc4cc(O)ccc43)C(=O)N[C@@H](CC(C)C)C(=O)N[C@@H](CC(C)C)C(=O)N[C@@H](CCCCN)C(=O)N2)C(=O)N[C@@H](CCCCN)C(=O)N[C@@H](CCCCN)C(=O)N[C@@H](CC(C)C)C(=O)N1)C(N)=O [ECOR A12G] ({5FAM-AEEEA}-KGEGE[S5]LLK[S5]WGLYSFNDGEKH[S5]KKL[S5]KL-NH2; staple 6-10, 23-27)
localization of LRRK2 to microtubules as filamentous skein-like structures [1, 8]: no significant localization | inhibition of LRRK2 dimer formation [2]: strongest dimer inhibition | reduction of cortical neuronal apoptosis [3]: over 50% | downregulation of Rab10 phosphorylation [4]: ~40% | pKd [5]: 7.22 to 7.35 and 7.24 | downregulation of intracellular LRRK2 G2019S dimerization [6]: 50–60% | remaining at 6 h, 0.2 mM [7]: > 80%

CC(C)C[C@H](NC(=O)[C@H](CCCCN)NC(=O)[C@]1(C)CCCC=CCCC[C@](C)(NC(=O)[C@H](Cc2c[nH]cn2)NC(=O)[C@H](CCCCN)NC(=O)[C@H](CCC(=O)O)NC(=O)CNC(=O)[C@H](CC(=O)O)NC(=O)[C@H](CC(N)=O)NC(=O)[C@H](Cc2ccccc2)NC(=O)[C@H](CO)NC(=O)[C@H](Cc2ccc(O)cc2)NC(=O)[C@H](CC(C)C)NC(=O)[C@H](C)NC(=O)[C@H](Cc2c[nH]c3ccccc23)NC(=O)[C@]2(C)CCCC=CCCC[C@](C)(NC(=O)[C@H](CCC(=O)O)NC(=O)CNC(=O)[C@H](CCC(=O)O)NC(=O)CNC(=O)[C@H](CCCCN)NC(=O)COCCOCCOCCNC(=O)c3ccc4c(c3)C(=O)OC43c4ccc(O)cc4Oc4cc(O)ccc43)C(=O)N[C@@H](CC(C)C)C(=O)N[C@@H](CC(C)C)C(=O)N[C@@H](CCCCN)C(=O)N2)C(=O)N[C@@H](CCCCN)C(=O)N[C@@H](CCCCN)C(=O)N[C@@H](CC(C)C)C(=O)N1)C(N)=O [ECOR] ({5FAM-AEEEA}-KGEGE[S5]LLK[S5]WALYSFNDGEKH[S5]KKL[S5]KL-NH2; staple 6-10, 23-27)
localization of LRRK2 to microtubules as filamentous skein-like structures [1, 8]: no significant localization | reduction of cortical neuronal apoptosis [3]: over 50% | downregulation of Rab10 phosphorylation [4]: not found to have measurable effects | pKd [5]: 7.22 to 7.35 and 7.35 | downregulation of intracellular LRRK2 G2019S dimerization [6]: 50–60% | remaining at 6 h, 0.2 mM [7]: > 80%

C[C@@H]1CN(c2cc(-c3n[nH]c4ccc(OC5(C)CC5)cc34)ncn2)C[C@H](C)O1 [MLi-2, reference compound]
localization of LRRK2 to microtubules as filamentous skein-like structures ([1]; 1 μM MLi-2, 6 h): considerable colocalization with tubulin | inhibition of Rab10 phosphorylation ([4]; 1 μM MLi-2 (positive control)): nearly completely inhibited
